Where two headings read alike, the source gives them in different places.
Columns and labels:
human CB1 receptor = biological target: T1, human CB1 receptor (Homo sapiens, UniProt P21554); test: biochemical; type: binding
T1 construct: purchased Perkin-Elmer Life Sciences, Inc. Lot #1929; host or cells: HEK293 (HEK293 EBNA according to b236 for compounds 33-36)

human CB2 receptor = biological target: T2, human CB2 receptor (Homo sapiens, UniProt P34972); test: CB2 receptor binding assay, displacement of [3H]CP 55,940
T2 construct: purchased Perkin-Elmer Life Sciences, Inc. Lot #1930

CB1 = CB1 (Rattus norvegicus, UniProt P20272); conditions: literature value, highly potent CB1 analogs; read-out: Ki of reference cannabinoid; cited from earlier work
[1] = tested on: rat hemorrhagic shock model; test: Rat hemorrhagic shock model; conditions: FIG. 22
C6 glioma cells = test: Cytotoxicity on C6 glioma cells (MTS, CellTiter 96); conditions: concentrations of 8 μM
[2] = Table 1, membranes of HEK293 cells with human CB1, SEM in parentheses, n≧2 in triplicate, read-out: CB1 Ki
[3] = Table 3, human receptor in HEK293 EBNA cell membranes, three experiments in duplicate, SEM in parentheses
[4] = Table 1, affinity ratio of Ki values
[5] = Table 8, SEM in parentheses, n≧2 in triplicate, read-out: CB1 Ki
[6] = Table 8, SEM in parentheses, n≧2 in triplicate
[7] = Table 3, human receptor in HEK293 EBNA cell membranes, three experiments in duplicate, SEM in parentheses, read-out: CB1 Ki
[8] = Table 3, human receptor in HEK293 EBNA cell membranes, three experiments in duplicate, SEM in parentheses, read-out: CB2 Ki

T1 sequence (P21554 whole entry): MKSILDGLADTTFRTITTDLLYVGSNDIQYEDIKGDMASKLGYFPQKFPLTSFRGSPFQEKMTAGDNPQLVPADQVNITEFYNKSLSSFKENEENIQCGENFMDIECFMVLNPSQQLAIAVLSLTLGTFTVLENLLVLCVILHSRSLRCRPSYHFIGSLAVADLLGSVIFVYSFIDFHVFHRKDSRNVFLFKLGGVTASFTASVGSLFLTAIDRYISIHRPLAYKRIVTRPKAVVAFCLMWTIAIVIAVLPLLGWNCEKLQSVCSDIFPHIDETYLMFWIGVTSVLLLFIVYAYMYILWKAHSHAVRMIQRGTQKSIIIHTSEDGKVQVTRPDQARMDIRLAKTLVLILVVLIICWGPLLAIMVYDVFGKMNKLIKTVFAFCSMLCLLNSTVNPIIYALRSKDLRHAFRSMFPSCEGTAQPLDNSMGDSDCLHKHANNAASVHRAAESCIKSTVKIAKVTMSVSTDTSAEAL
T2 sequence (P34972 whole entry): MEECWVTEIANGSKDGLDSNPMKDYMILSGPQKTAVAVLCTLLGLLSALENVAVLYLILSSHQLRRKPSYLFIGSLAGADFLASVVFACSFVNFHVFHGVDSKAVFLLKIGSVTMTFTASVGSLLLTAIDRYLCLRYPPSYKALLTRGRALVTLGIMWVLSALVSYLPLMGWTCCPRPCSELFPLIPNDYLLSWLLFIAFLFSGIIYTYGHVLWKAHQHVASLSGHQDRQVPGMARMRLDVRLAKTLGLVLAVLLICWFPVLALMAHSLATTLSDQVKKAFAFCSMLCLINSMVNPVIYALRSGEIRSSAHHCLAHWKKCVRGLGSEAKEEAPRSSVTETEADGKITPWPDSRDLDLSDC
CB1, sequence (P20272 whole entry): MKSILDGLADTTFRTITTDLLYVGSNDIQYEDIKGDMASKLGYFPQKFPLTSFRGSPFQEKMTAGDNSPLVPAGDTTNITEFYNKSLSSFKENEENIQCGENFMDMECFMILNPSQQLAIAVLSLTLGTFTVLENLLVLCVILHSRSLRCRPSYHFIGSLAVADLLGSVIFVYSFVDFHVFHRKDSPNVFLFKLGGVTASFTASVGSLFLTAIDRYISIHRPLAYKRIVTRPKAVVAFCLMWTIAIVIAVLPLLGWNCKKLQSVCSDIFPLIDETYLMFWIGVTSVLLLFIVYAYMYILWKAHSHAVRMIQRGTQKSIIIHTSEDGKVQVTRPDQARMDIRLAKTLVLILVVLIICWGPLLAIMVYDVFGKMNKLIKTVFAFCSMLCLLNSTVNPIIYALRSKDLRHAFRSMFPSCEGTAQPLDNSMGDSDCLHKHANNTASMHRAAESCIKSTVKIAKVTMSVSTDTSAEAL

CC1=CCC2C(C1)c1c(O)cc(C(C)(C)C3CCCCCC3)cc1OC2(C)C (centres unmarked) [Compound 29, 3-(1-Cycloheptyl-1-methyl-ethyl)-6,6,9-trimethyl-6a,7,10,10a-tetrahydro-6H-benzo[c]chromen-1-ol]
Ki (human CB1 receptor; [2]): 0.94 nM | Ki (human CB2 receptor): 0.22 nM

CCCCC(=O)c1cc(OC)cc(OC)c1 [Compound 5, 1-(3,5-Dimethoxy-phenyl)-pentan-1-one]
CB1 Ki (human CB1 receptor; [3]): significantly reduced binding affinities | CB2 Ki (human CB2 receptor; [3]): significantly reduced binding affinities

CC1=CCC2C(C1)c1c(O)cc(C3(C4CCCCCC4)SCCS3)cc1OC2(C)C (centres unmarked) [Compound 26, 3-(2-Cycloheptyl-[1,3]dithiolan-2-yl)-6,6,9-trimethyl-6a,7,10,10a-tetrahydro-6H-benzo[c] chromen-1-ol]
Ratio CB1/CB2 (human CB1 receptor; [4]): 0.27 | Ki (human CB1 receptor; [2]): 1.76 nM | Ki (human CB2 receptor): 6.62 nM | fold decrease in affinity at the CB2 receptor (dithiolane ring) (human CB2 receptor): 33 fold

CCCCCCC(C)(C)c1cc(O)c2c(c1)OC(C)(C)C1CC=C(C)CC21 (centres unmarked) [DMHT, 1′,1′-dimethylheptyl-Δ^8-THC]
Ki (CB1): 0.77 nM

CC1=CCC2C(C1)c1c(O)cc(C(C)(C)c3ccc(Cl)cc3)cc1OC2(C)C (centres unmarked) [Compound 52, 3-[1-(4-Chloro-phenyl)-1-methyl-ethyl]-6,6,9-trimethyl-6a,7,10,10a-tetrahydro-6H-benzo[c]chromen-1-ol]
Ki (human CB1 receptor; [5]): 76.1 nM | Ki (human CB2 receptor): 12.4 nM

CCCCC1(c2cc(O)c3c(c2)OC(C)(C)C2CC=C(C)CC32)SCCS1 (centres unmarked) [Compound 23, 3-(2-Butyl-[1,3]dithiolan-2-yl)-6,6,9-trimethyl-6a,7,10,10a-tetrahydro-6H-benzo[c]chromen-1-ol]
fold increase in binding to the CB1 receptor relative to Δ8-THC (human CB1 receptor): 33 fold | fold increased affinity for the CB1 receptor relative to the carbon equivalent 24 (human CB1 receptor): 4.7 fold | Ratio CB1/CB2 (human CB1 receptor; [4]): 1.47 | CB1 Ki (human CB1 receptor; Table 1, membranes of HEK293 cells with human CB1, SEM in parentheses, n≧2 in triplicate): sub-nanomolar | Ki (human CB1 receptor; [2]): 0.85 nM | Ki (human CB2 receptor): 0.58 nM | fold increase in binding to the CB2 receptor relative to Δ8-THC (human CB2 receptor): 47 fold | fold increased affinity for the CB2 receptor relative to the carbon equivalent 24 (human CB2 receptor): 11 fold | CB2 Ki (human CB2 receptor; Table 1, membranes of CHO-K1 cells with human CB2, SEM in parentheses, n≧2 in triplicate): sub-nanomolar

CC1=CCC2C(C1)c1c(O)cc(C(C)(C)c3ccc(F)cc3)cc1OC2(C)C (centres unmarked) [Compound 54, 3-[1-(4-Fluoro-phenyl)-1-methyl-ethyl]-6,6,9-trimethyl-6a,7,10,10a-tetrahydro-6H-benzo[c]chromen-1-ol]
Ratio CB1/CB2 (human CB1 receptor): 0.79 | Ki (human CB1 receptor; [5]): 2.8 nM | Ki (human CB2 receptor): 3.54 nM | CB2 Ki (human CB2 receptor; [6]): did show enhanced affinity for the CB-2 receptor

CC1=CCC2C(C1)c1c(O)cc(C(C)(C)c3cccs3)cc1OC2(C)C (centres unmarked) [Compound 55, 6,6,9-Trimethyl-3-(1-methyl-1-thiophen-2-yl-ethyl)-6a,7,10,10a-tetrahydro-6H-benzo[c]chromen-1-ol]
Ki (human CB1 receptor): 1.08 nM | Ratio CB1/CB2 (human CB1 receptor): 4.00 | Ki (human CB2 receptor): 0.27 nM | CB2 Ki (human CB2 receptor; [6]): sub-nanomolar

CC1=CCC2C(C1)c1c(O)cc(C(C)(C)c3ccc(C)cc3)cc1OC2(C)C (centres unmarked) [Compound 50, 6,6,9-Trimethyl-3-(1-methyl-1-p-tolyl-ethyl)-6a,7,10,10a-tetrahydro-6H-benzo[c]chromen-1-ol]
Ki (human CB1 receptor; [5]): 2.13 nM | Ratio CB1/CB2 (human CB1 receptor; Table 8, ratio of Ki values): 3.56 | Ki (human CB2 receptor): 0.88 nM | CB2 Ki (human CB2 receptor; [6]): sub-nanomolar

CC1=CC[C@@H]2[C@@H](C1)c1c(O)cc(C(=O)c3ccccc3)cc1OC2(C)C [Compound 36, methanone-phenyl-Δ^8-THC]
Ratio CB1/CB2 (human CB1 receptor): 12.6 | fold decrease in binding affinity for the CB1 receptor compared to Δ8-THC (human CB1 receptor): ~10 fold | Ki (human CB1 receptor; [7]): 297 nM | Ki (human CB2 receptor; [8]): 23.6 nM

CC1=CCC2C(C1)c1c(O)cc(C3(C4CCCCC4)SCCS3)cc1OC2(C)C (centres unmarked) [Compound 25, 3-(2-Cyclohexyl-[1,3]dithiolan-2-yl)-6,6,9-trimethyl-6a,7,10,10a-tetrahydro-6H-benzo[c]chromen-1-ol]
Ratio CB1/CB2 (human CB1 receptor): 1.77 | Ki (human CB1 receptor; [2]): 1.86 nM | Ki (human CB2 receptor): 1.05 nM | change in mean blood pressure versus time relative to positive control Δ8-THC and NS-398 ([1]; 12 mg/kg in combination with NS-398 2 mg/kg): improved behavior relative to the positive control

CC1=CCC2C(C1)c1c(O)cc(C(C)(C)C3CCCCC3)cc1OC2(C)C (centres unmarked) [Compound 28, 3-(1-Cyclohexyl-1-methyl-ethyl)-6,6,9-trimethyl-6a,7,10,10a-tetrahydro-6H-benzo[c]chromen-1-ol]
Ratio CB1/CB2 (human CB1 receptor; [4]): 0.87 | Ki (human CB1 receptor; [2]): 0.57 nM | Ratio CB1/CB2 (human CB1 receptor; Table 3, ratio of Ki values): 0.87 | Ratio CB1/CB2 (human CB1 receptor; Table 3, ratio of Ki values, listed as 32): binds both the subtypes with almost equal affinity | Ki (human CB2 receptor): 0.65 nM | rapid increase in ΔMAP, level reached relative to basal MAP ([1]; 12 mg/kg with 2 mg/kg NS-398 (COX-2 inhibitor)): ≤ 85%

CCCCCCC1(c2cc(O)c3c(c2)OC(C)(C)C2CC=C(C)CC32)SCCS1 (centres unmarked) [DTHT, 1′,1′-dithiolaneheptyl-Δ^8-THC]
Ki (CB1): 0.32 nM

CC1=CCC2C(C1)c1c(O)cc(Cc3ccccc3)cc1OC2(C)C (centres unmarked) [Compound 35, methylene-phenyl-Δ^8-THC]
Ki (human CB1 receptor; [7]): 67.6 nM | Ratio CB1/CB2 (human CB1 receptor; Table 3, ratio of Ki values): 0.78 | Ki (human CB2 receptor; [8]): 85.9 nM

CC1=CCC2C(C1)c1c(O)cc(C3(C4CCCC4)SCCS3)cc1OC2(C)C (centres unmarked) [Compound 24, 3-(2-Cyclopentyl-[1,3]dithiolan-2-yl)-6,6,9-trimethyl-6a,7,10,10a-tetrahydro-6H-benzo[c]chromen-1-ol]
Ratio CB1/CB2 (human CB1 receptor; [4]): 3.46 | Ki (human CB1 receptor; [2]): 9.49 nM | Ki (human CB2 receptor): 2.74 nM | fold decrease in affinity at the CB2 receptor (dithiolane ring) (human CB2 receptor): 7 fold

CC1=CCC2C(C1)c1c(O)cc(C(C)(C)C3CCCC3)cc1OC2(C)C (centres unmarked) [Compound 27, 3-(1-Cyclopentyl-1-methyl-ethyl)-6,6,9-trimethyl-6a,7,10,1a-tetrahydro-6H-benzo[c]chromen-1-ol]
Ratio CB1/CB2 (human CB1 receptor; [4]): 0.84 | Ki (human CB1 receptor; read-out: CB1 Ki): 0.34 nM | Ki (human CB2 receptor; Table 1, membranes of CHO-K1 cells with human CB2, SEM in parentheses, n≧2 in triplicate, read-out: CB2 Ki): 0.39 nM

CC1=CCC2C(C1)c1c(O)cc(C(C)(C)c3cccc(Cl)c3)cc1OC2(C)C (centres unmarked) [Compound 53, 3-[1-(3-Chloro-phenyl)-1-methyl-ethyl]-6,6,9-trimethyl-6a,7,10,10a-tetrahydro-6H-benzo[c]chromen-1-ol]
Ki (human CB1 receptor; [5]): 18.8 nM | Ki (human CB2 receptor): 1.68 nM

CC1=CCC2C(C1)c1c(O)cc(C(C)(C)c3cccc(C)c3)cc1OC2(C)C (centres unmarked) [Compound 51, 6,6,9-Trimethyl-3-(1-methyl-1-m-tolyl-ethyl)-6a,7,10,10a-tetrahydro-6H-benzo[c]chromen-1-ol]
Ki (human CB1 receptor; [5]): 2.53 nM | Ratio CB1/CB2 (human CB1 receptor; Table 8, ratio of Ki values): 2.24 | Ki (human CB2 receptor): 1.13 nM

gem-dimethyl-phenyl-Δ^8-THC [Compound 33]
Ratio CB1/CB2 (human CB1 receptor): 13.5 | Ki (human CB1 receptor; read-out: CB1 Ki): 12.3 nM | fold selectivity for the CB2 receptor (human CB2 receptor; CB2 over CB1): 13 fold | Ki (human CB2 receptor; [8]): 0.91 nM | Ki (human CB2 receptor; Table 8, SEM in parentheses, n≧2 in triplicate, read-out: CB2 Ki): 0.91 nM | time to complete cell death (C6 glioma cells): ≤ 5 h

CC1=CCC2C(C1)c1c(O)cc(C3(c4ccccc4)SCCS3)cc1OC2(C)C (centres unmarked) [Compound 34, dithiolanyl-phenyl-Δ^8-THC]
fold decrease in affinity relative to the 1′-cyclohexyl congener (human CB1 receptor): 10 fold | Ki (human CB1 receptor; [7]): 17.3 nM | Ki (human CB2 receptor; [8]): 17.6 nM

— US7169942B2, “Cannabinoid derivatives, methods of making, and use thereof” (priority 2003, dated 2007)
